Experimental findings from ChEMBL document CHEMBL1201862, “PubChem BioAssay data set” (2004) are described below.

Structures are written as SMILES.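 Results reflect a 48-hour exposure of cells in 96-well plates to compound at five concentrations. At the GI50, growth is halved.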 Calls of active or inactive are those of the source. Cut-off read from the data, not from the text of the source: active = GI50 up to about 1.1 µM and inactive = higher.

Experiment in all cases: growth of human tumour cells (NCI), 48 h
The subject of assay [1] is 786-0.
Assay [2] concerns A549.
For assay [3], the system named is ACHN.
Assay [4] has as its system CAKI-1.
The subject of assay [5] is CCRF-CEM.
The test system of assay [6] is HT-29.
Assay [7] deals with IGROV-1.
The test system of assay [8] is KM12.
For assay [9], the system named is M14.
Assay [10] concerns Malme-3M.
Assay [11] concerns NCI-H460.
Assay [12] concerns NCI-H522.
In assay [13] the test system is NCI/ADR-RES.
The test system of assay [14] is OVCAR-4.
The subject of assay [15] is SF-268.
In assay [16] the test system is SF-295.
The subject of assay [17] is SK-OV-3.
For assay [18], the system named is SW-620.
Assay [19] relates to T47D.
Assay [20] concerns UACC-62.

In the case of `Cc1ccc([C@H]2CC(=O)C[C@H](c3ccc(C)cc3)C23C(=O)c2ccccc2C3=O)cc1`, the GI50 in [1] was 17.1 µM (inactive); in assay [2], 43.2 µM (inactive); in assay [3] it was 63.4 µM (inactive); in assay [4] it was 68.2 µM (inactive); in assay [5], 14 µM (inactive); in [6], 67.3 µM (inactive). For the same molecule, the GI50 in assay [7] was 40 µM (inactive); in assay [8], > 100 µM (inactive); in assay [9] it was 27.8 µM (inactive); in [10] it was 46.7 µM (inactive); in assay [11] it was 47.2 µM (inactive); in assay [12], 3.23 µM (inactive). Also, the GI50 in assay [13] was 10.1 µM (inactive); in [14], 18.6 µM (inactive); in assay [15], 23 µM (inactive); in assay [16] it was 21.1 µM (inactive); in [17] it was 31.6 µM (inactive); in assay [18], 94.6 µM (inactive). Besides, the GI50 in assay [19] was > 100 µM (inactive); in assay [20] it was 37.7 µM (inactive).
For `COC(=O)NCCc1n[nH]c2c1C(=O)C=C(Nc1ccccc1)C2=O`, the GI50 was 47.3 µM (inactive) in assay [1]; 36.7 µM (inactive) in [2]; 32.4 µM (inactive) in assay [3]; 46.1 µM (inactive) in assay [4]; 13.7 µM (inactive) in assay [5]; 24.1 µM (inactive) in assay [6]. Further, the GI50 is 24.5 µM (inactive) in assay [7]; 18.4 µM (inactive) in [8]; 33.4 µM (inactive) in assay [9]; 12.7 µM (inactive) in assay [10]; 32.4 µM (inactive) in [11]; 13.5 µM (inactive) in [12]. The GI50 in assay [13] was 28.5 µM (inactive); in assay [14], 15.4 µM (inactive); in assay [15] it was 26 µM (inactive); in assay [16] it was 30.3 µM (inactive); in assay [17] it was 74.6 µM (inactive); in assay [18] it was 25.6 µM (inactive). The GI50 in assay [19] was 30.1 µM (inactive); in [20], 17.3 µM (inactive).
On to `Cc1ccc(-c2sc(-c3ccc(C)cc3)c3c2C2CCC3C2)cc1`, for which the GI50 in assay [1], in assay [2], in assay [3], in assay [4], in [5] and in assay [6] was > 50 µM (inactive) each time. For the same molecule, the GI50 in assay [7], in [8], in [9], in assay [10], in assay [11] and in [12] was > 50 µM (inactive) throughout. In addition, the GI50 in [13], in [14], in assay [15], in assay [16], in assay [17] and in assay [18] was > 50 µM (inactive) in each case. Further, the GI50 in assay [19] and in assay [20] was > 50 µM (inactive) each time.
In the case of `Cc1cccc(/N=C/C=C(\Cl)c2ccc3ccccc3c2)c1`, the GI50 in assay [1] is 13.9 µM (inactive); in assay [2], 44.6 µM (inactive); in [3], 16.4 µM (inactive); in assay [4] it was 17.2 µM (inactive); in assay [5], 4.15 µM (inactive); in assay [6], 21.2 µM (inactive). Moreover, the GI50 was 20.6 µM (inactive) in [7]; 17.7 µM (inactive) in assay [8]; 17.1 µM (inactive) in [9]; 17.1 µM (inactive) in [10]; 28.4 µM (inactive) in assay [11]; 32.6 µM (inactive) in assay [12]. Moreover, the GI50 is 17.7 µM (inactive) in assay [13]; 11.2 µM (inactive) in assay [14]; 22.9 µM (inactive) in assay [15]; 32.1 µM (inactive) in assay [16]; 23.4 µM (inactive) in assay [17]; 9.46 µM (inactive) in assay [18]. The GI50 was 4.88 µM (inactive) in assay [19] and 15.1 µM (inactive) in [20].
As for `Clc1ccc(/C(=C\c2ccccc2)Cn2ccnc2)cc1`, the GI50 was 17.4 µM (inactive) in [1]; 18 µM (inactive) in assay [2]; 16.6 µM (inactive) in assay [3]; 7.21 µM (inactive) in assay [4]; 24.5 µM (inactive) in [5]; 15.5 µM (inactive) in assay [6]. The GI50 in assay [7] is 19.6 µM (inactive); in [8] it was 4.93 µM (inactive); in assay [9], 19.6 µM (inactive); in assay [10], 10.2 µM (inactive); in assay [11] it was 20.1 µM (inactive); in assay [12] it was 8.15 µM (inactive). Also, the GI50 in [13] was 14.6 µM (inactive); in assay [14], 30.5 µM (inactive); in [15], 4.25 µM (inactive); in assay [16] it was 17.9 µM (inactive); in assay [17], 16.5 µM (inactive); in assay [18], 29.5 µM (inactive). Besides, the values for the GI50 in assay [19] and in [20] were 19.2 µM (inactive) and 16.7 µM (inactive), respectively.
Regarding `CC[C@@]1(O)C(=O)OCc2c1cc1n(c2=O)Cc2cc3ccccc3nc2-1` [CAMPTOTHECIN], the GI50 in assay [1] was < 0.0214 µM (active); in [2], 0.0181 µM (active); in assay [3], < 0.0116 µM (active); in [4], 0.0118 µM (active); in [5], < 0.01 µM (active); in [6], 0.0449 µM (active). The GI50 in assay [7] is 0.184 µM (active); in assay [8], 0.159 µM (active); in assay [9] it was < 0.0206 µM (active); in assay [10], 0.174 µM (active); in [11], 0.0158 µM (active); in assay [12], 0.0223 µM (active). For the same molecule, the GI50 was 0.012 µM (active) in assay [13]; 0.209 µM (active) in assay [14]; 0.0115 µM (active) in assay [15]; 0.0115 µM (active) in assay [16]; 0.0202 µM (active) in assay [17]; 0.0366 µM (active) in assay [18]. In addition, the GI50 is 0.0225 µM (active) in assay [19] and < 0.0106 µM (active) in [20].
On to `COC(=O)C1(C#N)C(C)(C)N=C(c2ccccc2)C12CCCCC2` (stereo not drawn), for which the GI50 in assay [1] was > 100 µM (inactive); in assay [2], 85.7 µM (inactive); in assay [4] it was > 100 µM (inactive); in [5], > 100 µM (inactive); in assay [6], > 100 µM (inactive); in assay [7] it was > 100 µM (inactive). The GI50 in assay [8], in [9], in assay [10], in assay [11], in assay [12] and in [13] was > 100 µM (inactive) in each case. For the same molecule, the GI50 in assay [14] is > 100 µM (inactive); in [15], > 100 µM (inactive); in assay [16] it was 56.4 µM (inactive); in assay [17], > 100 µM (inactive); in [18], > 100 µM (inactive); in assay [19], > 100 µM (inactive). In addition, the GI50 in assay [20] is 76.9 µM (inactive).
With `CCOC(=O)C(C(=O)OCC)=C1SC(=N\c2ccccc2)/C(=N/c2ccccc2)N1c1ccccc1`, the GI50 in [1] was > 100 µM (inactive); in assay [2], > 100 µM (inactive); in assay [3], 64 µM (inactive); in assay [4], > 100 µM (inactive); in assay [5] it was 18.4 µM (inactive); in [6], 82.2 µM (inactive). For the same molecule, the GI50 in [7] was > 100 µM (inactive); in [8], > 100 µM (inactive); in assay [10], > 100 µM (inactive); in assay [11], > 100 µM (inactive); in assay [12] it was 76.6 µM (inactive); in assay [13], > 100 µM (inactive). The GI50 is 48.3 µM (inactive) in [15]; 27 µM (inactive) in [16]; > 100 µM (inactive) in [17]; > 100 µM (inactive) in [19]; 53.6 µM (inactive) in [20].
With `CCOC(=O)c1c(N2CCOCC2)[nH]c(=O)c(C(c2cccs2)c2c(O)c(C(=O)OCC)c(N3CCOCC3)[nH]c2=O)c1O`, the GI50 in assay [1], in [2], in assay [3], in [4], in assay [5] and in assay [6] was > 100 µM (inactive) in each case. Moreover, the GI50 in assay [8], in assay [9], in [10], in assay [11], in assay [12] and in assay [13] was > 100 µM (inactive) in each case. Moreover, the GI50 in assay [14], in assay [15], in assay [16], in assay [17], in assay [18] and in assay [19] was > 100 µM (inactive) throughout. For the same molecule, the GI50 in assay [20] is > 100 µM (inactive).
In the case of `CCOC(=O)C(=CN1CCNC1=S)C(=O)OCC`, the GI50 in assay [1], in assay [2], in assay [3], in assay [4], in assay [5] and in assay [6] was > 100 µM (inactive) throughout. For the same molecule, the GI50 in assay [7] was > 100 µM (inactive); in assay [9], > 100 µM (inactive); in assay [10], > 100 µM (inactive); in assay [11] it was > 100 µM (inactive); in assay [12], 62.7 µM (inactive); in [13] it was > 100 µM (inactive). The GI50 in [14], in [16], in assay [17], in [18], in assay [19] and in [20] was > 100 µM (inactive) in each case.
